The values that follow come from PMC5132081 (The Febs Journal, 2016).

Like-named read-outs stand apart in the source and are kept apart here.

Assay [1] deals with T1, CYP109E1 (Priestia megaterium, UniProt D5DKI8).
T1 sequence (D5DKI8 1-404): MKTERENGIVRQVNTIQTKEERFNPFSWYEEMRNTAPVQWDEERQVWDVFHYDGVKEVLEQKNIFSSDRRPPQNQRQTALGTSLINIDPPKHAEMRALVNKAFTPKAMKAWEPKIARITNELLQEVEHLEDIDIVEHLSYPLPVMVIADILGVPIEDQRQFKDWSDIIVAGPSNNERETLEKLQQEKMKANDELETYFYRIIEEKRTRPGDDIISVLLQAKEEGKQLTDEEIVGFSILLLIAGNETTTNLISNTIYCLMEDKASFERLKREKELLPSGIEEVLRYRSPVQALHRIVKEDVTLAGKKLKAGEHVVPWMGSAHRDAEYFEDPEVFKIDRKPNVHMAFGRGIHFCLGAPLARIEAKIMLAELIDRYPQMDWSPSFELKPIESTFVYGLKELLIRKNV
Put plainly: co-crystal structure. It is filed as binding.

For assay [2], the target named is CYP109E1 (Priestia megaterium, UniProt D5DKI8, K187A). Nature of the assay: in vitro turnover of purified mutant with Adx4-108/AdR, HPLC. Format: biochemical.
The target of assay [3] is CYP109E1 (Priestia megaterium, UniProt D5DKI8, E245A). The description is as above. Format: biochemical.
For assay [4], the target named is T1, CYP109E1. Nature of the assay: co-crystal structure. Format: binding. This is another data set of the same source.

What is called Kd is a measure of binding affinity in units of concentration. Low values mean tighter binding, high ones weaker binding. At CYP109E1 [1], `C[C@]12C[C@H](O)[C@H]3[C@@H](CCC4=CC(=O)CC[C@@]43C)[C@@H]1CC[C@@H]2C(=O)CO` [compound 4, corticosterone] returned a Kd of 91 ± 8 µM.
Take `C[C@]12CC[C@H]3[C@@H](CCC4=CC(=O)CC[C@@]43C)[C@@H]1CC[C@@H]2O` [compound 11, testosterone]: the “Catalytic activity for the formation of 16β-OH-TES, nmol.(nmol P450)^-1.min^-1” value at CYP109E1 [2] was 1.43 ± 0.06 nmol·(nmol P450)^−1·min^−1; on CYP109E1 [3] it was 4.69 ± 0.04 nmol·(nmol P450)^−1·min^−1. This compound gave a Kd at CYP109E1 [4] of 105 ± 10 µM.
